The source of these data is patent publication US20120302618A1, “USE OF BENZYDAMINE IN THE TREATMENT OF P40-DEPENDENT DISEASES” (AZIENDE CHIM. RIUN. ANG. FRANC. A.C.R.A.F. S.p.A., priority 2009, published 2012).

As a reminder, the inhibition is the percentage by which the read-out fell short of the control. A lower inhibition goes with a response near the control. For orientation: IC50 means the point on the concentration scale where inhibition reaches its midpoint. A high value points to lower potency.

“And” between values parts separate entries of the source, which are not always exact repeats. Equal values may be shown once.

Assay [1] relates to p40. As to the kind of experiment: Inhibition of p40 protein production by anti-CD3 stimulated human PBMCs (Luminex). It is filed as cell-based. Here is the method: The capacity of the compound to inhibit the production of the protein p40 by anti-CD3 stimulated human PBMCs (peripheral blood mononuclear cells) was evaluated. The cells were placed in 96-well plates at a concentration of 2×10^5 cells/well. The compound was tested on a 6-point ½-log dose curve (in the range 0.3-100 μM) and incubated for 1 hour. The cells were then stimulated with anti-CD3 (4 μg/ml) for 48 hours. The amount of p40 produced was measured in the supernatants, suitably diluted with buffer, by using the Luminex 100 system.

In assay [2] the test system is TNF. Conditions: mice; cited from earlier work.
In assay [3] the test system is p40. Description: Inhibition of p40 mRNA expression by LPS-stimulated MonoMac6 cells (real-time PCR). It is filed as cell-based, human. Conditions: 75 μM, 1 h preincubation, LPS 100 ng/ml for 4 h. The protocol: The capacity of benzydamine to inhibit the expression of p40 by lipopolysaccharide (LPS)-stimulated MonoMac6 cells was evaluated. The cells were placed in 96-well plates at a concentration of 50 000 cells/well. The compound was tested at the concentration of 75 μM and incubated for 1 hour. The cells were then stimulated with LPS (100 ng/ml) for 4 hours. The total RNA was extracted from the cell pellet using the RNeasy mini kit (Qiagen), reverse-transcribed with the TaqMan Reverse transcription reagents synthesis kit (Applied Biosystems) and the cDNA obtained was used for the real-time PCR reaction. The amplification was obtained in 96-well plates using the ABI Prism 7000 sequence detection system (Applied Biosystems), by applying the following temperature profile: 50° C. for 2 minutes, 95° C. for 10 minutes and 45 cycles at 95° C. for 15 seconds and 60° C. for 1 minute. For the amplification, a set of primers and probe specific for human p40 was used (Applied Biosystems, RefSeq NM_002187.2). A set of primers and probe for β-actin was used in separate wells as an internal control of the samples for the purposes of normalization. Once the reaction had taken place, the fluorescence data were analysed using the ABI Prism 7000 SDS software, by calculating the threshold cycle (Ct) for each sample and subsequently performing a relative quantification via the ΔΔCt method.
Background: Real-time PCR tracks product formation cycle by cycle.

Assay [4] deals with TNF. Description: Inhibition of TNF production by anti-CD3 stimulated human PBMCs (Luminex). It is filed as cell-based. Here is the method: The capacity of the compound to inhibit the expression of the protein TNF by anti-CD3 stimulated human PBMCs (peripheral blood mononuclear cells) was evaluated. The cells were placed in 96-well plates at a concentration of 2×10^5 cells/well. The compound was tested on a 6-point ½-log dose curve (in the range 0.3-100 μM) and incubated for 1 hour. The cells were then stimulated with anti-CD3 (4 μg/ml) for 48 hours. The amount of TNF produced was measured in the supernatants, suitably diluted with buffer, by using the Luminex 100 system.

The mark [5] stands for this setting: 0 μM (so in the source), anti-CD3 4 μg/ml 48 h, human PBMCs.
Setting [6] is: PBMC, 1 μM, anti-CD3 4 μg/ml 48 h, human PBMCs.
[7] abbreviates: PBMC, 3 μM, anti-CD3 4 μg/ml 48 h, human PBMCs.
The mark [8] stands for this setting: PBMC, 10 μM, anti-CD3 4 μg/ml 48 h, human PBMCs.
Setting [9] is: PBMC, 30 μM, anti-CD3 4 μg/ml 48 h, human PBMCs.
Setting [10] is: PBMC, 100 μM, anti-CD3 4 μg/ml 48 h, human PBMCs.
The mark [11] stands for this setting: PBMC, anti-CD3 stimulated human PBMCs, 48 h.
The mark [12] stands for this setting: dose curve 0.3-100 μM, human PBMCs.

For `CN(C)CCCOc1nn(Cc2ccccc2)c2ccccc12` [Benzydamine], the “% inhibition of p40 production” value in the assay with p40 [1] (setting [5]) turned out to be 0%. Further, the figures for the inhibition at 1 µM in the assay on p40 [1] (setting [6]) and with TNF [4] (setting [6]) were 23% and 8%, respectively. Moreover, the inhibition at 3 µM in the assay on p40 [1] (setting [7]) was 24%; in the assay with TNF [4] (setting [7]) it was 12%. Further, the figures for the inhibition at 10 µM with p40 [1] (setting [8]) and in the assay on TNF [4] (setting [8]) were 44% and 22%, respectively. Further, the figures for the inhibition at 30 µM in the assay on p40 [1] (setting [9]) and in the assay on TNF [4] (setting [9]) were 97% and 44%, respectively. In addition, the inhibition at 100 µM in the assay with p40 [1] (setting [10]) worked out at 99%; with TNF [4] (setting [10]), 70%. Besides, the values for the IC50 in the assay on p40 [1] (setting [11]) and in the assay with TNF [4] (setting [11]) were 10.1 µM and 43.1 µM, respectively. Further, in the assay on p40 [1] (setting [12]), the “inhibition of anti-CD3 induced p40 production, range over dose curve” value is 23-99%. Further, the “dose required for a significant inhibiting effect on TNF production” value in the assay on TNF [2] was 20 mg/kg and 40 mg/kg. The “% inhibition of LPS-induced p40 mRNA expression” value with p40 [3] is 80%. In the assay on TNF [4] (setting [5]), the “% inhibition of TNF production” value was 7%. The “IC50 for TNF relative to IC50 for p40” value in the assay with TNF [4] (anti-CD3 stimulated human PBMCs) is “about 4 fold”. The “inhibition of anti-CD3 induced TNF production, range over dose curve” value with TNF [4] (setting [12]) is recorded as 8-70%.
